In patent publication US10093883B2, “Glucose gemini surfactant compound and method for preparation thereof” (ZHEJIANG UNIVERSITY, priority 2014, dated 2018):

Experiment: Surface activity test: critical micelle concentration (cmc), platinum plate method
Type: physicochemical
Conditions: 20° C.
Description: The critical micelle concentration (cmc) of the target product was determined as 0.0068 mmol/L at 20° C., which was 3 times […] than that of the compound dodecyl glucose gemini surfactant (cmc=0.02 mmol/L) and is suitable for separation and extraction of detergents and biofilm proteins.

Row | Structure (SMILES) | critical micelle concentration (cmc)
1 | CCCCCCCCCCCCOCC(COCCOCC(COCCCCCCCCCCCC)O[C@@H]1OC(CO)[C@@H](O)C(O)C1O)O[C@@H]1OC(CO)[C@@H](O)C(O)C1O (some centres unmarked) [dodecyl glucose gemini surfactant] | 0.02 mmol/L
2 | CCCCCCCCCCCCCCOCC(COCCOCC(COCCCCCCCCCCCCCC)O[C@@H]1OC(CO)[C@@H](O)C(O)C1O)O[C@@H]1OC(CO)[C@@H](O)C(O)C1O (some centres unmarked) [tetradecyl glucose gemini surfactant] | 0.053 mmol/L
